± gives the uncertainty stated by the source.
Assay: xn = mol fraction of the nth substance listed

CCc1ccccc1 + CCCCCCCCCCO
viscosity [mPa·s], 101 kPa
Conditions | 298.15 K | 308.15 K
x1 = 0.0666 | 9.53 ± 0.064 | 6.54 ± 0.046
x1 = 0.1392 | 7.494 ± 0.05 | 5.177 ± 0.037
x1 = 0.1932 | 6.24 ± 0.042 | 4.343 ± 0.031
x1 = 0.2642 | 4.904 ± 0.034 | 3.44 ± 0.024
x1 = 0.3355 | 3.841 ± 0.026 | 2.703 ± 0.019
x1 = 0.3936 | 3.152 ± 0.021 | 2.225 ± 0.016
x1 = 0.4483 | 2.623 ± 0.017 | 1.883 ± 0.013
x1 = 0.5238 | 2.056 ± 0.014 | 1.499 ± 0.011
x1 = 0.598 | 1.632 ± 0.012 | 1.206 ± 0.01
x1 = 0.6621 | 1.35 ± 0.01 | 1.023 ± 0.009
x1 = 0.7309 | 1.118 ± 0.009 | 0.863 ± 0.008
x1 = 0.7953 | 0.951 ± 0.008 | 0.744 ± 0.008
x1 = 0.8668 | 0.802 ± 0.008 | 0.659 ± 0.007
x1 = 0.9396 | 0.693 ± 0.007 | 0.597 ± 0.007

CCc1ccccc1 + CN(C)C=O
viscosity [mPa·s], 101.33 kPa
Conditions | 303.15 K | 313.15 K
x2 = 0.0997 | 0.597 ± 0.005 | 0.542 ± 0.004
x2 = 0.1996 | – | 0.556 ± 0.004
x2 = 0.1997 | 0.614 ± 0.005 | –
x2 = 0.2997 | – | 0.568 ± 0.004
x2 = 0.2999 | 0.631 ± 0.005 | –
x2 = 0.4154 | 0.652 ± 0.005 | 0.584 ± 0.005
x2 = 0.5109 | 0.667 ± 0.005 | 0.597 ± 0.005
x2 = 0.584 | 0.679 ± 0.005 | 0.608 ± 0.005
x2 = 0.6991 | 0.696 ± 0.005 | 0.625 ± 0.005
x2 = 0.8014 | 0.709 ± 0.005 | 0.641 ± 0.005
x2 = 0.8872 | 0.719 ± 0.005 | 0.652 ± 0.005

N#CCCCCC#N + CN(C)C=O
303.15 K, 101.33 kPa
Conditions | viscosity [mPa·s]
x1 = 0.1051 | 0.9087 ± 0.0058
x1 = 0.2983 | 1.335 ± 0.0081
x1 = 0.3971 | 1.636 ± 0.0098
x1 = 0.4957 | 2.001 ± 0.012
x1 = 0.5919 | 2.413 ± 0.014
x1 = 0.6983 | 2.957 ± 0.017
x1 = 0.8486 | 3.821 ± 0.022

N#CCCCCC#N + CS(C)=O
303.15 K, 101.33 kPa
Conditions | viscosity [mPa·s]
x1 = 0.1031 | 2.027 ± 0.012
x1 = 0.2999 | 2.489 ± 0.014
x1 = 0.4015 | 2.76 ± 0.016
x1 = 0.5024 | 3.06 ± 0.017
x1 = 0.5947 | 3.343 ± 0.019
x1 = 0.6945 | 3.682 ± 0.021
x1 = 0.8441 | 4.243 ± 0.024

CCCCn1cc[n+](C)c1.F[P-](F)(F)(F)(F)F + ClC(Cl)Cl
Conditions | viscosity [mPa·s]
298.15 K, 101 kPa, x2 = 0.0857 | 195

CCCCn1cc[n+](C)c1.F[P-](F)(F)(F)(F)F + CC#N
298.15 K, 101 kPa
Conditions | viscosity [mPa·s]
x2 = 0.1938 | 92.9 ± 24
x2 = 0.5896 | 8.84 ± 1

CC1=CCC(=C(C)C)CC1 + Clc1ccccc1
viscosity [mPa·s], 101 kPa
Conditions | x1 = 0.0668 | x1 = 0.1386 | x1 = 0.2162 | x1 = 0.3003 | x1 = 0.3917 | x1 = 0.4913 | x1 = 0.6004 | x1 = 0.7203 | x1 = 0.8528
303.15 K | 0.729 ± 0.015 | 0.761 ± 0.017 | 0.798 ± 0.019 | 0.836 ± 0.022 | 0.874 ± 0.025 | 0.908 ± 0.029 | 0.934 ± 0.034 | 0.955 ± 0.04 | 0.974 ± 0.046
308.15 K | 0.692 ± 0.015 | 0.722 ± 0.016 | 0.756 ± 0.018 | 0.791 ± 0.02 | 0.826 ± 0.024 | 0.858 ± 0.028 | 0.881 ± 0.032 | 0.897 ± 0.037 | 0.913 ± 0.043
313.15 K | 0.649 ± 0.014 | 0.677 ± 0.015 | 0.709 ± 0.017 | 0.743 ± 0.019 | 0.775 ± 0.022 | 0.804 ± 0.026 | 0.825 ± 0.03 | 0.839 ± 0.035 | 0.853 ± 0.041

Clc1cccc2ccccc12 + CCCO
viscosity [mPa·s], 101.33 kPa
Conditions | x1 = 0.1004 | x1 = 0.2017 | x1 = 0.2983 | x1 = 0.395 | x1 = 0.5003 | x1 = 0.6002 | x1 = 0.6993 | x1 = 0.7991 | x1 = 0.9003
298.15 K | 1.968 ± 0.026 | 2.039 ± 0.032 | 2.091 ± 0.041 | 2.172 ± 0.051 | 2.255 ± 0.063 | 2.349 ± 0.076 | 2.448 ± 0.09 | 2.567 ± 0.11 | 2.716 ± 0.13
303.15 K | 1.745 ± 0.023 | 1.805 ± 0.029 | 1.854 ± 0.036 | 1.918 ± 0.045 | 1.999 ± 0.056 | 2.077 ± 0.067 | 2.166 ± 0.08 | 2.275 ± 0.095 | 2.417 ± 0.11
308.15 K | 1.57 ± 0.021 | 1.62 ± 0.026 | 1.672 ± 0.033 | 1.714 ± 0.04 | 1.789 ± 0.05 | 1.86 ± 0.06 | 1.943 ± 0.072 | 2.043 ± 0.085 | 2.178 ± 0.1
